For one assay, the system named is TCR1. Kind of assay: Multiplexed TCR/library dropout screen, mean ES. The format is cell-based, mouse. As to conditions: two I-Ag7 libraries combined, mixture of seven TCRs, dropout replicates (n = 6); one biological experiment. From the text:
(§1) Finally, we sought to address two important aspects of antigen discovery techniques. First, we assessed whether SABR-II screens can directly read out the strength of TCR–pMHC binding. To that end, we selected six known BDC2.5 ligands across a range of ES values (Extended Data Fig. 9a) and we measured the functional avidity of their recognition by BDC2.5 TCR in vitro. Bone-marrow-derived dendritic cells were pulsed with a range of concentrations of peptides corresponding to the epitopes and used to present the peptides to BDC2.5 TCR-expressing 5KC cells. Secretion of mIL-2 was measured by ELISA and used to determine the functional avidity as EC50 (concentration of the peptide needed to induce half-maximal mIL-2) (Extended Data Fig. 9b). We observed that there was a modest negative correlation between the EC50 values of the epitopes and their ES values (Extended Data Fig. 9c). […] Second, we evaluated whether we could increase the throughput of SABR-II screens by multiplexing TCRs and libraries at the cellular level. We combined the two previously described I-Ag7 libraries in equal proportions according to their size and used it as a single library. We also employed a dropout strategy, in which a mixture of seven TCRs was screened in replicate, where one TCR was left out in each replicate. After single enrichment, we determined the mean ES of all replicates that contained a given TCR and used it to identify the cognate epitope of that TCR (Extended Data Fig. 10 and Supplementary Table 6). Using this strategy, we were able to successfully recapitulate the results for four out of four TCRs previously identified in individual screens. The use of such a strategy will greatly enhance the throughput or SABR-II screens by reducing the hands-on sort time from 1 h per TCR to 20 min per TCR.
(§2) For SABR library screens, 3 × 10^6 NFAT–GFP Jurkat cells expressing the SABR library were labeled with CellTrace Violet (BioLegend) according to the manufacturer’s protocol before incubation with 3 × 10^6 Jurkat cells expressing the TCR of interest. These mixtures were incubated in a six-well plate for 16–20 h. Cells were stained with anti-CD69-APC-Cy7 where indicated (BioLegend) and the top 1–2% of GFP^+CD69^+ cells were sorted for genomic DNA extraction, indexing and sequencing (see below). Multiplexed assays were scaled on a per-TCR basis (for example 3 × 10^6 for each of three TCRs against 9 × 10^6 library cells). For single SABR assays, unless otherwise defined, 5 × 10^5 SABR expressing NFAT–GFP Jurkat cells (or 5KC cells) were labeled with CellTrace Violet (BioLegend) according to the manufacturer’s protocol before incubation with 5 × 10^5 TCR-expressing Jurkat cells (or 5KC cells) in a round-bottom 96-well plate for 16–20 h. Cells were stained with anti-CD69-APC-Cy7 when indicated and acquired on the Attune NxT flow cytometer (Thermo Fisher Scientific). All flow analysis was performed using FlowJo (BD). For Daudi cell co-culture, 1 × 10^6 Jurkat cells expressing the TCR of interest were incubated with 1 × 10^6 Daudi cells expressing a SABR of interest for 3 days. On day 3, cells were labeled with anti-RT1B-PE and anti-Fas-APC-Cy7 before being acquired on the Attune NxT flow cytometer.
(§3) Genomic DNA was extracted from sorted cells immediately after sorting, using the PureLink genomic DNA extraction kit (Life Technologies). The integrated SABR vectors were amplified with KOD polymerase (Millipore) and two rounds of amplification. In the first round, IDT-UD-SABR-C2-F and IDT-UD-SABR-C2-R primers were used to amplify the epitope. In the second round, UDI0001-R and UDI0001-F primers (representative of index 1) were used to add Illumina unique dual indexes (UDIs) to the amplicons. A different UDI was used for each sample. The reactions were pooled and purified with the NucleoSpin gel and PCR purification kit (Takara). The purified PCR product was checked before sequencing using 2% agarose gel and subjected to sequencing on a HiSeq4000 (Fulgent Genetics). […]

A further assay has as its system TCR24. Kind of assay: Multiplexed TCR/library dropout screen, mean ES. The format is cell-based, mouse. As to conditions: Avg ES for all the replicates that contain that TCR (TCR24).
Source text: as §1, §2, §3

The subject of another assay is TCR2. Kind of assay: Multiplexed TCR/library dropout screen, mean ES. The format is cell-based, mouse. As to conditions: Avg ES for all the replicates that contain that TCR (TCR2).
Source text: as §1, §2, §3

The test system of a further assay is TCR37. Kind of assay: Multiplexed TCR/library dropout screen, mean ES. The format is cell-based, mouse. As to conditions: Avg ES for all the replicates that contain that TCR (TCR37).
Source text: as §1, §2, §3

A further assay deals with TCR3. Kind of assay: Multiplexed TCR/library dropout screen, mean ES. The format is cell-based, mouse. The following applies: two I-Ag7 libraries combined, mixture of seven TCRs, dropout replicates (n = 6).
Source text: as §1, §2, §3

The next assay concerns TCR5. Briefly: Multiplexed TCR/library dropout screen, mean ES. It is filed as cell-based, mouse. The following applies: two I-Ag7 libraries combined, mixture of seven TCRs, dropout replicates (n = 6).
Source text: as §1, §2, §3

For a further assay, the system named is TCR7. Kind of assay: Multiplexed TCR/library dropout screen, mean ES. The format is cell-based, mouse. The following applies: two I-Ag7 libraries combined, mixture of seven TCRs, dropout replicates (n = 6).
Source text: as §1, §2, §3

The subject of the next assay is Jurkat cells, No TCR. Kind of assay: Single SABR-II co-incubation, background without TCR. The format is cell-based, human. An outline of the steps:
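Single SABR-II constructs for putative cognate epitopes were expressed in CellTrace Violet-labelled NFAT–GFP Jurkat cells and co-incubated 1:1 (5 × 10^5 each) with TCR-expressing Jurkat cells for 16–20 h. GFP (with CD69 staining when indicated) was measured by flow cytometry. Wells with GFP above the no-TCR control were scored positive.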

The mark [1] stands for this setting: No TCR, Fig 3B, 18 h, biological replicate 1.
Where [2] appears, read: No TCR, Fig 3B, 18 h, biological replicate 2.
Setting [3] is: No TCR, Fig 3B, 18 h, biological replicate 3.
Where [4] appears, read: No TCR, Fig 4B, technical replicate 1.
[5] abbreviates: No TCR, Fig 4B, technical replicate 2.

Consider AAVEEGIVAGGGVTLL, for which the “Mean Dropout Enrichment Score” value is given as 9.635e-6 in the assay with TCR1, -1.302e-6 in the assay with TCR3, -4.831e-6 in the assay with TCR5 and -1.2378e-6 with TCR7. In the assay on TCR24, the “ES for each dropout, LOO_TCR24” value came to 1.546e-6. Moreover, in the assay on TCR2, the “ES for each dropout, LOO_TCR2” value came out at 1.97e-6. In addition, the “ES for each dropout, LOO_TCR37” value in the assay on TCR37 amounted to 2.247e-6.
As for AEKVRNLPAGHGLNAQ, the “Mean Dropout Enrichment Score” value with TCR1 is recorded as -4.113e-5; with TCR3, -2.694e-5; with TCR5 it was -3.449e-5; with TCR7 it was -3.038e-5. Further, in the assay with TCR24, the “ES for each dropout, LOO_TCR24” value is recorded as -1.89e-5. In the assay with TCR2, the “ES for each dropout, LOO_TCR2” value is -1.229e-5. Moreover, the “ES for each dropout, LOO_TCR37” value in the assay with TCR37 is given as -2.944e-5.
As for AGGVAVIKAGAATEV, the “Mean Dropout Enrichment Score” value with TCR1 is 1.903e-5; in the assay on TCR3, 3.191e-5; with TCR5, 1.931e-5; in the assay with TCR7, 2.296e-5. The “ES for each dropout, LOO_TCR24” value with TCR24 is given as 2.636e-5. Also, in the assay with TCR2, the “ES for each dropout, LOO_TCR2” value came out at 7.935e-6. Moreover, in the assay with TCR37, the “ES for each dropout, LOO_TCR37” value was 1.413e-5.
As to AKAAVEEGIVAGGGV, the “Mean Dropout Enrichment Score” value in the assay on TCR1 is 1.526e-5; in the assay with TCR3, 1.247e-5; in the assay on TCR5 it was 9.209e-6; with TCR7, -7.192e-6. Moreover, the “ES for each dropout, LOO_TCR24” value with TCR24 is given as 8.2968e-7. The “ES for each dropout, LOO_TCR2” value in the assay with TCR2 came out at 1.371e-5. The “ES for each dropout, LOO_TCR37” value with TCR37 was determined as 7.483e-6.
ALVREGLRNVAAGANP: the “Mean Dropout Enrichment Score” value in the assay on TCR1, in the assay with TCR3, in the assay with TCR5 and in the assay on TCR7 was -1.224e-5 in each case. The “ES for each dropout, LOO_TCR24” value in the assay on TCR24 is on record as -1.224e-5. Also, in the assay on TCR2, the “ES for each dropout, LOO_TCR2” value is -1.224e-5. In addition, the “ES for each dropout, LOO_TCR37” value in the assay with TCR37 was -1.224e-5.
On to LQTLALNAARDP, for which the “%GFP+CD69+ cells of SABR-NFAT-GFP-Jurkat cells” value (“%GFP+CD69+ cells” for short) worked out at 3.08% in the assay on Jurkat cells, No TCR (No TCR, Ext. Data Fig. 6C, 18-20 hr, technical replicate 1); 3.07% in the assay on Jurkat cells, No TCR (No TCR, Ext. Data Fig. 6C, 18-20 hr, technical replicate 2); 2.51% in the assay with Jurkat cells, No TCR (setting [1]); 6.93% in the assay with Jurkat cells, No TCR (setting [2]); 3.6% with Jurkat cells, No TCR (setting [3]); 1.39% in the assay on Jurkat cells, No TCR (setting [4]). Moreover, the “%GFP+CD69+ cells” value is recorded as 1.36% in the assay with Jurkat cells, No TCR (setting [5]); 0.73% in the assay on Jurkat cells, No TCR (No TCR, Fig 5C, technical replicate 1); 0.75% with Jurkat cells, No TCR (No TCR, Fig 5C, technical replicate 2).
For SHLVEALYLVCGERG, the “%GFP+CD69+ cells” value was determined as 3.46% with Jurkat cells, No TCR (Mock TCR, Fig 4B, technical replicate 1); 3.03% with Jurkat cells, No TCR (Mock TCR, Fig 4B, technical replicate 2); 2% in the assay with Jurkat cells, No TCR (setting [1]); 3.5% in the assay on Jurkat cells, No TCR (setting [2]); 1.84% with Jurkat cells, No TCR (setting [3]); 0.93% in the assay on Jurkat cells, No TCR (setting [4]). Besides, the “%GFP+CD69+ cells” value in the assay on Jurkat cells, No TCR (setting [5]) is 1.04%; in the assay on Jurkat cells, No TCR (No TCR, Fig 4B, technical replicate 3), 1.2%.

Source of the values: PMC11093748, “De novo identification of CD4^+ T cell epitopes” (Nature Methods, 2024).
